The values below come from patent US12215123B2, “Cordycepin-based derivatized compound with anti-tumor effect” (NANJING TECH UNIVERSITY, priority 2022, dated 2025).

Common to all, as to format: in vivo, C57BL/6j nude mice
One test relates to IDB ovarian cancer cells. Nature of the test: Mouse transplanted ovarian cancer model. As to conditions: ovarian cancer transplanted mice, 15 days, 500 ug/time/animal intragastric. The method, then: (§1) The feeding of the mouse model in the drug evaluation follows that: mice are fed and treated in a laminar flow cabinet, with 5 nude mice in each cage, drinking water and feedstuffs are added once every 3 days, and paddings are replaced once a week; a number of mice kept in each cage is no more than 5, the mice in separate cages are kept in groups as far as possible, and the mice should not be kept in a single cage; the animal management must conform to the relevant national standards on animal feeding management, and the behavioral needs of animals should be concerned at the same time to avoid unnecessary stress; the normal physiological and behavioral needs of animals, such as defecation, urination, constant body temperature maintenance, normal activities, posture adjustment and reproduction are met; good ventilation and dry animals are kept; the animals can access to drinking water and food at will, and supplementation, replacement and cleaning operations are easily carried out; a solid and safe environment is provided to avoid accidents of animals, such as escaping or limb trapping in a gap; the animals are avoided from being damaged by sharp edges or protrusions; and the animals are not disturbed during observation.
A mouse transplanted ovarian cancer model was established and a drug was evaluated. […]

Another test deals with MC-38 colon cancer cells. Nature of the test: Mouse transplanted colon cancer model. As to conditions: MC-38 transplanted mice, 28 days, 500 ug/time/animal intragastric (compound daily, antibody every 4 days); control 1,300 mm^3. Here is the method: as §1
A mouse transplanted colon cancer model was established and a drug was evaluated. […]

For a further test, the system named is B16-F10 melanoma cells. Put plainly: Mouse transplanted melanoma model. As to conditions: B16-F10 transplanted mice, intragastric 500 ug/time/animal every other day, 24 days; blank 1760 mm^3. Here is the method: as §1
A mouse transplanted melanoma model was established and a drug was evaluated. 2.5×10^5 B16-F10 melanoma cells were suspended in 100 μL of PBS to be inoculated into an outer side of thigh of left lower limb of C57BL/6j nude mice. One week later, when the transplanted tumor reached about 100 mm^3, the mice were randomly divided into ten groups, with 10 mice in each group, comprising a blank control group, a cordycepin group, a compound 13 group, a compound 14 group, a compound 17 group, a compound 19 group, a compound 22 group, a compound 26 group, a compound 29 group and a compound 34 group respectively. The blank control group was intragastrically administrated with a nutritional agent such as a corn steep liquor and DMSO as a solvent control every day for 24 consecutive days, and the compound groups were intragastrically administrated with corresponding compounds (500 ug/time/animal in all cases) every other day for 24 consecutive days. […] The mice were killed after the experiment, blood and corresponding tissue samples were collected, tumor bodies were immediately photographed and weighed, and some tumor tissues were fixed in a formalin solution to be further detected. Two vertical diameters (length and width) of the transplanted tumor were measured with a caliper every two days to calculate a size of the transplanted tumor, and a tumor value was calculated according to a formula: tumor volume (mm^3)=[…].

Each structure is given as a SMILES string.

Regarding `CC(C)OC(=O)C(C)NP(=O)(COC[C@@H]1CC(O)[C@H](n2cnc3c(NC(=O)c4ccncc4)ncnc32)O1)Oc1ccccc1` (stereo partly drawn) [Compound 24, isopropyl((((4-hydroxy-5-(6-(isonicotinamide)-9H-purin-9-yl)tetrahydrofuran-2-yl)methoxy)methyl)(phenoxy)phosphoryl)alanine ester], the “tumor size reduced by (times) versus control” value with IDB ovarian cancer cells is “about 2 times”.
Consider `Nc1ncnc2c1ncn2[C@@H]1O[C@H](CO)C[C@H]1O` [Cordycepin, 3′-deoxyadenosine], for which the tumor size with MC-38 colon cancer cells is reported as 730 mm^3. Moreover, in the test on B16-F10 melanoma cells, the tumor volume was determined as 600 mm^3.
